The subject of series [1] is ERα and Cyclin D1 in T47D cells. Nature of the series: Western blot after KAT6 inhibitor dose titration. Format: cell-based. To be noted: increasing concentrations, 14 days. The protocol:
Cells were plated at 10,000 cells per well into 6-well culture dishes and allowed to attach overnight at 37° C., 5% CO2. The next day, either COMPOUND C or COMPOUND D was added to wells at increasing concentrations, in addition to DMSO as vehicle control. Cells were cultured for 14 days with medium and KAT6 inhibitor refreshed twice a week (every 3-4 days). At the end of drug treatment, one million cells were collected via trypsinization for protein lysates. Cells were lysed in 100 μL 1× LDS buffer diluted from 4× LDS buffer (ThermoFisher catalog #NP0007) with reducing agent (ThermoFisher catalog #NP0009). The lysates were subsequently sonicated and loaded onto a NuPAGE 4-12% Bis-Tris gel (ThermoFisher, catalog #NP0321BOX) followed by electrophoresis. Gels were then transferred onto a nitrocellulose membrane (iBlot2, ThermoFisher). Membranes were blocked and incubated overnight at 4° C. with following antibodies: anti-ERα (D8H8) Rabbit mAb (#8644, Cell Signaling) and anti-β-actin (8H10D10) mouse mAb (Cell Signaling, #3700S). […]
In general terms: Immunoblotting shows a protein as a band on a membrane.

The test system of series [2] is estradiol response genes in T47D cells. Kind of series: RNA-Seq gene set enrichment analysis. To be noted: 20 nM, 6-day treatment, GSEA. The format is cell-based. The protocol: The following day, cells were treated with vehicle control (DMSO) or COMPOUND C at 20 nM concentration. Media and compounds were refreshed three days later for a total of 6-day treatment. At the end of the 6-day treatment, cells were harvested by trypsinization and lysed in Buffer RLT (Qiagen, Cat No./ID 79216)^+β-mercaptoethanol. RNA lysates were submitted for RNA sequencing (“RNA-Seq”) (WuXi NextCODE®).
RNA-Seq data analysis: Adapter sequences were trimmed off from the Illumina raw reads, provided by WuXi NextCODE®, using Trimmomatic (v0.36) for paired-end reads, and low-quality reads were filtered out. Reads remaining after the pre-processing step were mapped to the reference genome hg38 using STAR (v2.6.0c). Gene level expression was quantitated as expected counts and transcripts per million (TPM) using “rsem-calculate-expression” of RSEM (v1.3.0) with default parameters. Differential expression analysis of robustly expressed genes (max expression across samples >=10) was performed using DESeq2 (v1.18.1) package. Gene set enrichment analysis (GSEA, v3.0) was conducted using GseaPreranked option. Genes were ranked based on signedlog10pval. Gene set collections (c2.all.v6.1) from Molecular Signatures Database (MSigDB) were used in this analysis.

The next series concerns ZR-75-1 cells. Nature of the series: Proliferation colony formation assay (SRB stain). The format is cell-based. The procedure: (§1) T47D, ZR-75-1, or MCF7 cells were seeded into 6-well tissue culture plates at 10% seeding confluence (100,000-150,000 cells per well). After allowing 18-24 hours for the cells to attach to the wells, growth media was aspirated and discarded and new growth media containing 0-20 μM of either COMPOUND A or COMPOUND B was added in 2-fold increments of descending concentration from 20 μM to the cells (proliferation assay). In parallel, seeded cultures with the same titration of the KAT6 inhibitors was added to the cells. 500 nM palbociclib was also added for each concentration of the KAT6 inhibitors (palbociclib recovery assay). The cultures were incubated 12-14 days and treated with these inhibitors/inhibitor combinations. Growth media containing the inhibitors was replaced on the cell cultures every 3-4 days (twice per week).
For the ZR-75-1 and MCF7 experiments, only COMPOUND A was tested. For the single agent treated ZR-75-1 cultures the vehicle treated cultures were >90% confluent after 12 days of treatment. These cultures were SRB stained, scanned, and destained/measured as described above. […] After 22 days of recovery, the ZR-75-1 cultures that had been treated with single agent 500 nM palbociclib were >90% confluent and these palbociclib recovery assay cultures were SRB stained, scanned, and destained/measured as described above.
Cells were plated at low density into 6-well culture dishes and allowed to attach overnight at 37° C., 5% CO2. […] At the end of treatment, cells were washed once with phosphate-buffered saline and were fixed and stained with SRB for visualization followed by quantification. […] Wells were fixed and stained with SRB for visualization followed by quantification. To quantify the stain, stained cells were dissolved in 2 mL of 10 mM Tris-HCl, pH 7.5 and shaken for 10 min on a shaker. Samples were then diluted with 10 mM Tris-HCl, pH 7.5, transferred to a 96-well microtiter plate in a volume of 100 μL and read on SpetraMax at 565 nm.

In series [3] the test system is T47D cells. Kind of series: Proliferation colony formation assay (SRB stain). The format is cell-based. The procedure: as §1
For the KAT6 inhibitor treated T47D cultures (proliferation assay), after 12 days the vehicle (DMSO) treated cultures were >90% confluent and the cell cultures were SRB stained as described in Example 3. The stained 6-well plates were scanned using an Epson Perfection V600 Photo Scanner and Epson Scan version 3.9.2.0 software. To quantitate SRB staining in each 6-well culture, the cultures were destained with 2 mL 10 mM Tris pH 7.5 per well and the absorbance at 565 nm (O.D. 565) of the released stain was measured using a SpectraMax Plus plate reader and SoftMaxPro 5.4.3 software. Inhibition of T47D cell proliferation by both COMPOUND A and COMPOUND B were equivalent with 50% proliferation inhibition observed with 10 μM of the KAT6 inhibitors (FIGS. 8A and 8C).
Cells were plated at low density into 6-well culture dishes and allowed to attach overnight at 37° C., 5% CO2. The next day, in parallel to the proliferation set, palbociclib was added at a final concentration of […] to another set of plates, which served as the set for palbociclib recovery. To both proliferation and palbociclib recovery plates, DMSO or KAT6 inhibitor was added into each well at increasing doses. Medium and KAT6 inhibitor were refreshed twice a week. Cells were cultured for about two weeks of drug treatment until the DMSO-treated wells reached confluency. At the end of treatment, cells were washed once with phosphate-buffered saline and were fixed and stained with SRB for visualization followed by quantification. […] Wells were fixed and stained with SRB for visualization followed by quantification. To quantify the stain, stained cells were dissolved in 2 mL of 10 mM Tris-HCl, pH 7.5 and shaken for 10 min on a shaker. Samples were then diluted with 10 mM Tris-HCl, pH 7.5, transferred to a 96-well microtiter plate in a volume of 100 μL and read on SpetraMax at 565 nm.

In series [4] the test system is ER+ breast cancer PDX model ST340. Nature of the series: PDX tumor growth inhibition study. The format is in vivo, female athymic nude mice. To be noted: doses per Table 7; for % TGI Delta: PDX ST340, day 21, compared to Vehicle. The protocol:
(§2) Combination studies with palbociclib, fulvestrant and the KAT6 inhibitor, Compound E (KAT6i), were performed in two ER+ breast cancer PDX models: ST340 and ST941. ST340 was wildtype for ESR1. […] Both studies were conducted by XenoSTART (San Antonio, Texas), where 6-12 week-old female athymic nude mice (JAX, stock #007850) were subcutaneously implanted with ~70 mg tumor fragments. Animals were supplemented with exogenous estradiol ad libitum via drinking water throughout the duration of the studies. Tumor measurements and animal weights were captured twice per week, and animals were stratified and enrolled into the study when the mean tumor volume (TV, formula: width^2×length×0.5) reached 150-300 mm^3.
(§3) Each study contained eight treatment groups of n=10 animals per group. The groups were as follows: 1) Vehicle (5% DMSO/40% PEG300/55% 1×PBS), 2) Compound E, 3) palbociclib, 4) fulvestrant, 5) palbociclib+fulvestrant, 6) Compound E +fulvestrant, 7) Compound E+palbociclib, and 8) Compound E+palbociclib+fulvestrant. Animals remained on study and were continued on treatments until the mean tumor volume of each group reached ~1500 mm^3. At that point, the final dose was administered, animals were sacrificed, and terminal samples were collected. Blood microsamples were collected from each group for pharmacokinetics (PK) analysis at 0, 3, and 7 hrs (n=3/timepoint) on day 14 of dosing and again on the terminal day of dosing.
(§4) Analysis of covariance (ANCOVA) was used to determine statistical significance when comparing percent TGI between groups. Changes in bodyweights were calculated in relation to starting bodyweights at study initiation (day 0 of treatment).

Series [5] in a line: Bodyweight and health monitoring, PDX ST340 study. Format: in vivo, female athymic nude mice. To be noted: relative to day 0. The protocol:
as §2, §3, §4

Series [6] can be described thus: Bodyweight and health monitoring, PDX ST941 study. The format is in vivo, female athymic nude mice. As to conditions: relative to day 0. The procedure:
as §2, §3, §4

In series [7] the test system is T47D cells. Kind of series: Palbociclib growth arrest and recovery, cell counts. The format is cell-based. As to conditions: 500 nM palbociclib. The protocol: T47D and MCF7 were confirmed as ER+ breast cancer cell lines using short tandem repeat (“STR”) testing (ATCC STR profiling service). […] After allowing 18-24 hours for the cells to attach to the plates, 500 nM palbociclib was added to each culture. Growth media and palbociclib was refreshed twice per week (every 3-4 days). […] For T47D cultures, the cells were suspended by trypsinization from triplicate cultures on days 1, 14, and 24 of palbociclib treatment and the cell density of each suspension was measured using a Vi-Cell XR cell counter. In a separate experiment, three additional T47D cultures were treated for 14 days with 500 nM palbociclib, then the palbociclib was washed off the cells and the cells were allowed to recover for 10 days. After 10 days of recovery, the cells were suspended by trypsinization and the cell density of each suspension was measured by cell counter.

A further series relates to MCF7 cells. Described as above. The format is cell-based. As to conditions: MCF7, 500 nM palbociclib. The procedure:
T47D and MCF7 were confirmed as ER+ breast cancer cell lines using short tandem repeat (“STR”) testing (ATCC STR profiling service). […] After 6 and 14 days of palbociclib treatment, the cells in each well were suspended by trypsinization and cell densities were measured by cell counter. For the additional MCF7 cultures that were treated, in parallel, for either 6 or 14 days with 500 nM palbociclib, the palbociclib was washed off the cells and they were allowed 7-8 days to recover. After this recovery period, the cells were suspended by trypsinization and the cell densities of each suspension were measured. Similar to the T47D cells, palbociclib treatment stably arrested MCF7 cells for up to 14 days of treatment (FIG. 1B). However, after removing palbociclib from the MCF7 cultures treated for either 6 or 14 days, the cells readily re-entered the cell cycle and proliferated.

Series [8] has as its system ERα protein in T47D cells. Nature of the series: Western blot after palbociclib treatment. Format: cell-based. To be noted: 500 nM palbociclib, 8 days. The protocol: (§5) Cells were seeded into 6-well culture plates and allowed to attach overnight at 37° C., 5% CO2. […] Medium was refreshed every 3 days. At 3, 6 and 8 days of treatment, cells were harvested for protein and RNA lysates.

In series [9] the test system is ERα protein in MCF7 cells. Nature of the series: Western blot after palbociclib treatment. As to conditions: MCF7, 500 nM palbociclib, 8 days. Format: cell-based. The procedure: as §5
The test system of a further series is CAMA1 cells. Nature of the series: Profiling of the response of CAMA1 to palbociclib. Format: cell-based.

As to `COc1cccc(OC)c1S(=O)(=O)Nc1noc2cc(Cn3cccn3)cc(OC)c12` [COMPOUND C, 2,6-dimethoxy-N-{4-methoxy-6-[(1H-pyrazol-1-yl)methyl]-1,2-benzoxazol-3-yl}benzene-1-sulfonamide], the “ERα and Cyclin D1 protein” value in series [1] is “dose-dependent depletion”. Moreover, in series [2], the “NES (Normalized Enrichment Score), estradiol-induced genes” value is given as −9,92 and the “NES (Normalized Enrichment Score), estradiol-repressed genes” value amounted to 6.27. Also, the IC50 in the series with ZR-75-1 cells (Homo sapiens, ZR-75-1, ZR75-1, single agent, about two weeks, read-out: Concentration giving 50% growth inhibition) is ~3.9 nM. Further, the “Kind of effect on cell growth” value in the series with ZR-75-1 cells (ZR75-1, dose titration) is on record as “strong dose-dependent cytotoxic effect”. The “Kind of effect on cell growth” value with T47D cells [3] (dose titration) is given as “cytostatic”. Besides, in the series on T47D cells [3] (single agent, about two weeks), the “Maximal reduction of growth” value is “about 40%”.

Take `CC(=O)c1c(C)c2cnc(Nc3ccc(N4CCNCC4)cn3)nc2n(C2CCCC2)c1=O` [Palbociclib, 6-acetyl-8-cyclopentyl-5-methyl-2-(5-piperazin-1-yl-pyridin-2-ylamino)-8H-pyrido[2,3-d]pyrimidin-7-one]: the figures for the “% TGI Delta” value in [4] and in [4] (listed as palbociclib) were 43.7% and ~ 40%, respectively. Further, in series [4] (PDX ST340, tumor volume (mm^3)), the “Mean ± SEM (day 21)” value worked out at 1051.4 ± 134. Besides, the “Day 21 mean change in bodyweight” value in series [5] was −2%. The “Maximum mean bodyweight loss” value in series [5] and in series [6] was −3% in each case. Further, the “Day 17 mean change in bodyweight” value in series [6] was −1%. Also, the “Effect on cell cycle” value in the series on T47D cells [7] and in the series with MCF7 cells was “complete cell cycle arrest” each time. The “Reversibility of growth arrest” value in the series on T47D cells [7] (after withdrawal) and in the series with MCF7 cells (after withdrawal) was “reversible upon palbociclib withdrawal” each time. Besides, the “Reduction of ERα protein level” value in [8] and in [9] was “about 50%” each time. Further, the “Effect of single agent treatment on proliferation” value in the series on CAMA1 cells was “irreversible proliferation arrest”.

Values taken from patent US20260240819A1, “KAT6 INHIBITOR METHODS AND COMBINATIONS FOR CANCER TREATMENT” (Pfizer Inc., priority 2020, published 2026).
